The target of this test is Histone deacetylase 1 (Homo sapiens, UniProt Q13547). In words: Inhibition of HDAC1 (unknown origin) using 6-carboxyfluorescein peptide as substrate preincubated with compound followed by substrate addition by electrophoretic mobility shift assay. A general note: Mobility shift assays separate free from complexed probe on a gel.
Chain of Histone deacetylase 1 (Q13547 whole entry): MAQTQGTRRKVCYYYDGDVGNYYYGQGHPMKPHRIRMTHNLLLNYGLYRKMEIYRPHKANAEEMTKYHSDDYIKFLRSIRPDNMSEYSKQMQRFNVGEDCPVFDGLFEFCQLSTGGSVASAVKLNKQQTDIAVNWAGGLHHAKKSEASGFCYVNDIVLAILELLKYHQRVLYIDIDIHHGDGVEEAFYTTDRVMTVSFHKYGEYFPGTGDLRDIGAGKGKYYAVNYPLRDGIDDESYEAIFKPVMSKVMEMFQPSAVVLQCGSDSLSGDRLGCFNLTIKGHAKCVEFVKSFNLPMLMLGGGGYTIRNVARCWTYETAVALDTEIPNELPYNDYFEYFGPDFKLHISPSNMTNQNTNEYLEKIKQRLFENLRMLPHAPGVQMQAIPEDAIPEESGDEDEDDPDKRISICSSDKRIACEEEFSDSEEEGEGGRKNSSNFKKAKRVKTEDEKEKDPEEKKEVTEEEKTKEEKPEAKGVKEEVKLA

By IC50 is commonly meant the concentration that gives 50% inhibition. On to `C=CC(=O)N1CCC(OC(=O)NCc2ccc(C(=O)Nc3ccccc3N)cc2)CC1`, for which the IC50 worked out at 685 nM.
